The values below come from patent publication US20260325533A1, “CDK INHIBITOR COMPOUNDS” (ALEKSIA THERAPEUTICS, INC., priority 2023, published 2026).

Where two headings read alike, the source gives them in different places.

Common to all, as to format: biochemical
The target of one assay is CDK2/CCNE1 (Homo sapiens, UniProt P24941). The assay is described as follows: CDK2 homogeneous time-resolved fluorescence (HTRF) kinase assay. As to conditions: CDK2/CCNE. The procedure, abridged:
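TR-FRET read-out (665 nm, or 665/615 ratio) of Eu-antibody detection of phospho-4E-BP1 (Thr37/46) ULight peptide. Enzyme 3 nM, ATP 1 mM, peptide 50 nM, 1% DMSO; 60 min reaction at 23 °C after 20 min compound preincubation. IC50 from 11-point half-log titrations, top typically 10 μM.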
A general note: TR-FRET usually uses a lanthanide donor and a delayed reading to cut background.

Another assay deals with CDK1/CCNB1 (Homo sapiens, UniProt P06493). As to the kind of experiment: CDK1 homogeneous time-resolved fluorescence (HTRF) kinase assay. As to conditions: CDK1/CCNB. The essentials:
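0.5 nM CDK1/CCNB1 was preincubated 20 min at 23 °C with compound in HEPES pH-unspecified buffer (MgCl2, EGTA, DTT, Tween 20), then reacted 60 min with 1 mM ATP and 50 nM ULight-4E-BP1 (Thr37/46) peptide. EDTA-stopped reactions were detected with 2 nM Eu-anti-phospho antibody; IC50 from 11-point half-log titrations.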

The next assay deals with CDK6/CCND1 (Homo sapiens, UniProt Q00534). As to the kind of experiment: CDK6 homogeneous time-resolved fluorescence (HTRF) kinase assay. As to conditions: CDK6/CCND. The procedure:
(§1) A CDK homogeneous time-resolved fluorescence (HTRF) assay was used to assess the potency of the compounds described herein.
(§2) To an untreated 384-well microtiter plate (ProxiPlate) was added 100 nL 100×test compound in DMSO and 5 μL 2×CDK enzyme in assay buffer (50 mM HEPES, 1 mM EGTA, 10 mM MgCl2, 0.01% Tween 20, 2 mM DTT). The plate was centrifuged at 800 RPM for 1 min then incubated for 20 min at 23 °C. 2.5 μL per well of 4×ATP and 2.5 μL 4×ULight™-eIF4E-binding protein 1 (Thr37/46) Peptide substrate were added to all wells. After addition, the plates were centrifuged at 800 RPM for 1 min. The plates were incubated at 23 °C for 60 min. 5 μL per well 4×EDTA solution were added to each well to stop the reaction. 5 μL 4×LANCE Ultra Europium-anti-phospho-eIF4E-binding protein 1 (Thr37/46) antibody were added to each well and the plate was centrifuged for 1 min at 800 RPM. The plate was incubated for 60 min at 23 °C. Fluorescence was read at 340 nm excitation and 665 nm emission on an EnVision 2105 fluorescence reader. The final concentrations of reagents in the activity assay were 1 nM CDK6/CCND1, 1 mM ATP, 50 nM ULight™-eIF4E-binding protein 1 (Thr37/46) Peptide substrate, 1% DMSO, 10 mM EDTA, and 2 nM LANCE Ultra Europium-anti-phospho-eIF4E-binding protein 1 (Thr37/46).
(§3) Dose-response titrations were conducted by using an 11-point, half-logarithmic serial dilution scheme typically starting at 10 μM. Signals were reported as fluorescence units at 665 nm or the ratio of fluorescence units at 665 nm/fluorescence units at 615 nm. Signals are referred to below as “Lance signals”.
(§4) Using this assay, the IC50 values of example compounds were determined. Table 3 illustrates the IC50 for various Example compounds of Formula IA. Table 4 illustrates the IC50 for various other Example compounds of Formula I. ND=not determined.

For the next assay, the target named is CDK4/CCND3 (Homo sapiens, UniProt P11802). The assay is described as follows: CDK4 homogeneous time-resolved fluorescence (HTRF) kinase assay. As to conditions: CDK4/CCND. On the procedure:
as §1
as §2, with “were 1.5” for “were 1”, “nM CDK4/CCND3,” for “nM CDK6/CCND1,”
as §3, §4

Where [1] appears, read: x = IC50 <25 nM, read-out: CDK2/CCNE IC50 (<25 nM).
Setting [2] is: x = IC50 25-250 nM, read-out: CDK1/CCNB IC50 (25-250 nM).
Where [3] appears, read: x = IC50 25-250 nM, read-out: CDK4/CCND IC50 (25-250 nM).

Sequence of CDK6/CCND1 (Q00534 whole entry): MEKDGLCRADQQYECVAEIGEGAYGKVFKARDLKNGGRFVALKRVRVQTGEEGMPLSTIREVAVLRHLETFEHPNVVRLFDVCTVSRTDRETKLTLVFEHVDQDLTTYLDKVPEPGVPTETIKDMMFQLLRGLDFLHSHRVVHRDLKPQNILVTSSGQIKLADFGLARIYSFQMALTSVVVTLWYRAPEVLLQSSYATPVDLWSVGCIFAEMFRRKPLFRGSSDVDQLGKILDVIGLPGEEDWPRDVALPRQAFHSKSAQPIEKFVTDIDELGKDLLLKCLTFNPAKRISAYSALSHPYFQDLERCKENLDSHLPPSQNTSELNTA
Sequence of CDK6/CCND1 (P24385 whole entry partner): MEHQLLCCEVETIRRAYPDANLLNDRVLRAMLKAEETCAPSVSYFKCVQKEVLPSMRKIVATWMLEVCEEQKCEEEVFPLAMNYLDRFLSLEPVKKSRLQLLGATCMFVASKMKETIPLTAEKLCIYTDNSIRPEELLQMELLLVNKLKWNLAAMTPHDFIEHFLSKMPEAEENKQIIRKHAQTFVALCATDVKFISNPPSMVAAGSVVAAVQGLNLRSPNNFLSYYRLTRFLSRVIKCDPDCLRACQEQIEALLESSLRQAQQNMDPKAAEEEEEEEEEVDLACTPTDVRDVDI
Sequence of CDK1/CCNB1 (P06493 whole entry): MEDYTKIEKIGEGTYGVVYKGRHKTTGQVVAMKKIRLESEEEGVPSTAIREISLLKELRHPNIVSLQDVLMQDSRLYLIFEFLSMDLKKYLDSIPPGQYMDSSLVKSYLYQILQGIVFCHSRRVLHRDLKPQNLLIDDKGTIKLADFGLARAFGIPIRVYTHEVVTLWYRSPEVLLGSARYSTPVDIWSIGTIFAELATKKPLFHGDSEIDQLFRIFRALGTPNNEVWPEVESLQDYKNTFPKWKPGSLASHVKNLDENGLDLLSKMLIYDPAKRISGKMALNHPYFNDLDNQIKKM
Sequence of CDK1/CCNB1 (P14635 whole entry partner): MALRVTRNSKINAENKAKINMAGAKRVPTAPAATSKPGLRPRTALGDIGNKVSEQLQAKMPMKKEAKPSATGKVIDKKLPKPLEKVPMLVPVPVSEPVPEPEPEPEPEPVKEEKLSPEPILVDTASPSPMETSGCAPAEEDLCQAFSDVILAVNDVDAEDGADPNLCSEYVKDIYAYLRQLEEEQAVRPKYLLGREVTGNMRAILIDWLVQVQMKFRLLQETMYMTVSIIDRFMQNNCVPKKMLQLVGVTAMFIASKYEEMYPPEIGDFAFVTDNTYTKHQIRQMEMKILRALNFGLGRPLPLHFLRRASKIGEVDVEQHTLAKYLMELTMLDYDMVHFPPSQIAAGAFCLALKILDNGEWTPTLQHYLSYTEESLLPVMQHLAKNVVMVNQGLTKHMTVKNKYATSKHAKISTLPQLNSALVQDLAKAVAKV
Sequence of CDK4/CCND3 (P11802 whole entry): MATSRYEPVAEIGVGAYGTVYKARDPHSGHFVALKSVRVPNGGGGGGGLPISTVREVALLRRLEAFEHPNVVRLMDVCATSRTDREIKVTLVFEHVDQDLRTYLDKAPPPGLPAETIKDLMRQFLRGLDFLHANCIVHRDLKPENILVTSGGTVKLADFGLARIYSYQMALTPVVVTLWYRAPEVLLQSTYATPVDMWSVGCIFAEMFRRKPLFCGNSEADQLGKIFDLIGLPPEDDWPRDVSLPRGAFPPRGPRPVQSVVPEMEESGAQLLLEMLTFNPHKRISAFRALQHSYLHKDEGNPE
Sequence of CDK4/CCND3 (P30281 whole entry partner): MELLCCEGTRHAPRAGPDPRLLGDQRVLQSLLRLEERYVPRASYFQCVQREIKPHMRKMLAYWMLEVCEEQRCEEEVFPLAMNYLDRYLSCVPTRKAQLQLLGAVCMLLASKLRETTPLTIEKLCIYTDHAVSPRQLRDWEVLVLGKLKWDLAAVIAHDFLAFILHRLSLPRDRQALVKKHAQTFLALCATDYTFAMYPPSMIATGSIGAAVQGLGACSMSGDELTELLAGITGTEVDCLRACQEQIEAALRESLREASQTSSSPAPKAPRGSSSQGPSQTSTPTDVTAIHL

For `CS(=O)(=O)N1CCC(Nc2cc3c(C(=O)N4CCCC(O)C4)nccc3cn2)CC1` (racemic) [Ex 95, (3-hydroxypiperidin-1-yl)(7-((1-(methylsulfonyl)piperidin-4-yl)amino)-2,6-naphthyridin-1-yl)methanone], the IC50 is over 250 nM on CDK2/CCNE1 (>250 nM marked x, read-out: CDK2/CCNE IC50 >250 nM); over 250 nM at CDK1/CCNB1 (>250 nM marked x, read-out: CDK1/CCNB IC50 >250 nM); under 25 nM at CDK6/CCND1 (<25 nM, read-out: CDK6/CCND IC50 <25 nM).

With `Cc1cc(S(C)(=N)=O)ccc1Nc1cc2c(C#Cc3ccc4c(c3)NC(=O)C43CCC3)nccc2cn1` (single isomer, unassigned) [Ex 333, 6'-((7-((2-methyl-4-(S-methylsulfonimidoyl)phenyl)amino)-2,6-naphthyridin-1-yl)ethynyl)spiro[cyclobutane-1,3'-indolin]-2'-one], the IC50 at CDK1/CCNB1 (25-250 nM marked x, read-out: CDK1/CCNB IC50 25-250 nM) is 25 to 250 nM; on CDK4/CCND3 (25-250 nM marked x, read-out: CDK4/CCND IC50 25-250 nM), 25 to 250 nM.

On to `Cc1cc2c(cc1C#Cc1nccc3cnc(Nc4ccc(S(=N)(=O)C(C)C)cc4)cc13)NC(=O)C2(C)C` (single isomer, unassigned) [Ex 343, 3,3,5-trimethyl-6-((7-((4-(propan-2-ylsulfonimidoyl)phenyl)amino)-2,6-naphthyridin-1-yl)ethynyl)indolin-2-one], for which the values for the IC50 at CDK2/CCNE1 (setting [1]), at CDK1/CCNB1 (setting [2]) and at CDK4/CCND3 (setting [3]) were under 25 nM, 25 to 250 nM and 25 to 250 nM, respectively.

Consider `N=S(=O)(c1ccc(Nc2cc3c(C#Cc4ccc5c(c4)NC(=O)C54CC4)nccc3cn2)cc1)C1CCC1` (single isomer, unassigned) [Ex 353, 6'-((7-((4-(cyclobutanesulfonimidoyl)phenyl)amino)-2,6-naphthyridin-1-yl)ethynyl)spiro[cyclopropane-1,3'-indolin]-2'-one], for which, at CDK4/CCND3 (setting [3]), the IC50 lay in the range of 25 to 250 nM.

On to `CC1(C)C(=O)Nc2cc(C#Cc3nccc4cnc(Nc5ccc(S(=N)(=O)C6CCC6)cc5)cc34)ccc21` (single isomer, unassigned) [Ex 453, 6-((7-((4-(cyclobutanesulfonimidoyl)phenyl)amino)-2,6-naphthyridin-1-yl)ethynyl)-3,3-dimethylindolin-2-one], for which the IC50 on CDK2/CCNE1 (setting [1]) was under 25 nM; on CDK1/CCNB1 (x = IC50 <25 nM, read-out: CDK1/CCNB IC50 (<25 nM)), under 25 nM; on CDK6/CCND1 (x = IC50 25-250 nM, read-out: CDK6/CCND IC50 (25-250 nM)), 25 to 250 nM.

On to `CC1(C)C(=O)Nc2cc(C#Cc3nccc4cnc(Nc5ccc(S(=N)(=O)C6CCC6)cc5)cc34)ccc21` (single isomer, unassigned) [Ex 454, 6-((7-((4-(cyclobutanesulfonimidoyl)phenyl)amino)-2,6-naphthyridin-1-yl)ethynyl)-3,3-dimethylindolin-2-one], for which the IC50 was 25 to 250 nM at CDK1/CCNB1 (setting [2]) and under 25 nM on CDK4/CCND3 (x = IC50 <25 nM, read-out: CDK4/CCND IC50 (<25 nM)).

As to `CCC1(CC)C(=O)Nc2cc(C#Cc3nccc4cnc(Nc5ccc(S(=N)(=O)C6CCC6)cc5)cc34)ccc21` (single isomer, unassigned) [Example 413, 6-((7-((4-(cyclobutanesulfonimidoyl)phenyl)amino)-2,6-naphthyridin-1-yl)ethynyl)-3,3-diethylindolin-2-one], the IC50 on CDK4/CCND3 (x = IC50 >250 nM, read-out: CDK4/CCND IC50 (>250 nM column)) was over 250 nM.

As for `Cc1c(-c2nccc3cnc(Nc4ccc(S(C)(=N)=O)cc4)cc23)ccc2nn(C)cc12` (single isomer, unassigned) [Example 546, (4-((5-(2,4-dimethyl-2H-indazol-5-yl)-2,6-naphthyridin-3-yl)amino)phenyl)(imino)(methyl)-λ^6-sulfanone], on CDK6/CCND1 (x = IC50 >250 nM, read-out: CDK6/CCND IC50 (>250 nM column)), the IC50 was over 250 nM.

Consider `Cc1c(-c2nccc3cnc(Nc4ccc(S(=O)(=O)Nc5cc(F)cc(C(C)(C)O)c5)cc4)cc23)ccc2c1cnn2CC(C)(C)O` [Ex 801, N-(3-fluoro-5-(2-hydroxypropan-2-yl)phenyl)-4-((5-(1-(2-hydroxy-2-methylpropyl)-4-methyl-1H-indazol-5-yl)-2,6-naphthyridin-3-yl)amino)benzenesulfonamide], for which the IC50 at CDK2/CCNE1 (<25 nM, read-out: CDK2/CCNE IC50, <25 nM) is under 25 nM; at CDK1/CCNB1 (>250 nM, read-out: CDK1/CCNB IC50 >250 nM), over 250 nM; at CDK6/CCND1 (>250 nM, 1 mM ATP, read-out: CDK6/CCND IC50, >250 nM) it was over 250 nM.
